For this data set, the system named is CCRIS mutagenicity, Ames/micronucleus/aberration tests. The data set is described as follows: CCRIS mutagenicity studies.
The mark [1] stands for this setting: Test System: AMES SALMONELLA TYPHIMURIUM, Strain/Indicator: TA98, Metabolic Activation: NONE, Method: STANDARD PLATE.
The mark [2] stands for this setting: Test System: AMES SALMONELLA TYPHIMURIUM, Strain/Indicator: TA100, Metabolic Activation: NONE, Method: STANDARD PLATE.

Two compounds from PubChem BioAssay AID1259407 (Chemical Carcinogenesis Research Information System (CCRIS), 2018) can be followed below.

The source made the active and inactive calls. The rule behind the calls is not given here.

As to `C=CC(=O)OCC`, the mutagenic call by setting is: (End Point: IN VITRO CHROMOSOMAL ABERRATIONS, Test System: CHO-LB CELLS, Metabolic Activation: NONE) “inactive; negative”; (End Point: IN VITRO CHROMOSOMAL ABERRATIONS, Test System: CHO-LB CELLS, Metabolic Activation: RAT, LIVER, S-9, AROCLOR 1254) “active; positive”; (Test System: AMES SALMONELLA TYPHIMURIUM, Strain/Indicator: TA98, Metabolic Activation: HAMSTER, LIVER, S-9, AROCLOR 1254, Method: PREINCUBATION) “inactive; negative”; (Test System: AMES SALMONELLA TYPHIMURIUM, Strain/Indicator: TA98, Metabolic Activation: NONE, Method: PREINCUBATION) “inactive; negative”; under setting [1], “inactive; negative”; (Test System: AMES SALMONELLA TYPHIMURIUM, Strain/Indicator: TA98, Metabolic Activation: RAT, LIVER, S-9, AROCLOR 1254, Method: PREINCUBATION) “inactive; negative”. The mutagenic call reads like this: (Test System: AMES SALMONELLA TYPHIMURIUM, Strain/Indicator: TA98, Metabolic Activation: RAT, LIVER, S-9, AROCLOR 1254, Method: STANDARD PLATE) “inactive; negative”; (Test System: AMES SALMONELLA TYPHIMURIUM, Strain/Indicator: TA98, Metabolic Activation: RAT, LIVER, S-9, SODIUM PHENOBARBITAL, Method: STANDARD PLATE) “inactive; negative”; (Test System: AMES SALMONELLA TYPHIMURIUM, Strain/Indicator: TA100, Metabolic Activation: HAMSTER, LIVER, S-9, AROCLOR 1254, Method: PREINCUBATION) “inactive; negative”; (Test System: AMES SALMONELLA TYPHIMURIUM, Strain/Indicator: TA100, Metabolic Activation: NONE, Method: PREINCUBATION) “inactive; negative”; under setting [2], “inactive; negative”; (Test System: AMES SALMONELLA TYPHIMURIUM, Strain/Indicator: TA100, Metabolic Activation: RAT, LIVER, S-9, AROCLOR 1254, Method: PREINCUBATION) “inactive; negative”. Moreover, the mutagenic call was “inactive; negative” (Test System: AMES SALMONELLA TYPHIMURIUM, Strain/Indicator: TA100, Metabolic Activation: RAT, LIVER, S-9, AROCLOR 1254, Method: STANDARD PLATE); “inactive; negative” (Test System: AMES SALMONELLA TYPHIMURIUM, Strain/Indicator: TA100, Metabolic Activation: RAT, LIVER, S-9, SODIUM PHENOBARBITAL, Method: STANDARD PLATE); “inactive; negative” (Test System: AMES SALMONELLA TYPHIMURIUM, Strain/Indicator: TA1535, Metabolic Activation: HAMSTER, LIVER, S-9, AROCLOR 1254, Method: PREINCUBATION); “inactive; negative” (Test System: AMES SALMONELLA TYPHIMURIUM, Strain/Indicator: TA1535, Metabolic Activation: NONE, Method: PREINCUBATION); “inactive; negative” (Test System: AMES SALMONELLA TYPHIMURIUM, Strain/Indicator: TA1535, Metabolic Activation: NONE, Method: STANDARD PLATE); “inactive; negative” (Test System: AMES SALMONELLA TYPHIMURIUM, Strain/Indicator: TA1535, Metabolic Activation: RAT, LIVER, S-9, AROCLOR 1254, Method: PREINCUBATION). The mutagenic call was “inactive; negative” (Test System: AMES SALMONELLA TYPHIMURIUM, Strain/Indicator: TA1535, Metabolic Activation: RAT, LIVER, S-9, AROCLOR 1254, Method: STANDARD PLATE); “inactive; negative” (Test System: AMES SALMONELLA TYPHIMURIUM, Strain/Indicator: TA1535, Metabolic Activation: RAT, LIVER, S-9, SODIUM PHENOBARBITAL, Method: STANDARD PLATE); “inactive; negative” (Test System: AMES SALMONELLA TYPHIMURIUM, Strain/Indicator: TA1537, Metabolic Activation: HAMSTER, LIVER, S-9, AROCLOR 1254, Method: PREINCUBATION); “inactive; negative” (Test System: AMES SALMONELLA TYPHIMURIUM, Strain/Indicator: TA1537, Metabolic Activation: NONE, Method: PREINCUBATION); “inactive; negative” (Test System: AMES SALMONELLA TYPHIMURIUM, Strain/Indicator: TA1537, Metabolic Activation: NONE, Method: STANDARD PLATE); “inactive; negative” (Test System: AMES SALMONELLA TYPHIMURIUM, Strain/Indicator: TA1537, Metabolic Activation: RAT, LIVER, S-9, AROCLOR 1254, Method: PREINCUBATION). The mutagenic call is “inactive; negative” (Test System: AMES SALMONELLA TYPHIMURIUM, Strain/Indicator: TA1537, Metabolic Activation: RAT, LIVER, S-9, AROCLOR 1254, Method: STANDARD PLATE); “inactive; negative” (Test System: AMES SALMONELLA TYPHIMURIUM, Strain/Indicator: TA1537, Metabolic Activation: RAT, LIVER, S-9, SODIUM PHENOBARBITAL, Method: STANDARD PLATE); “inactive; negative” (Test System: AMES SALMONELLA TYPHIMURIUM, Strain/Indicator: TA1538, Metabolic Activation: NONE, Method: STANDARD PLATE); “inactive; negative” (Test System: AMES SALMONELLA TYPHIMURIUM, Strain/Indicator: TA1538, Metabolic Activation: RAT, LIVER, S-9, AROCLOR 1254, Method: STANDARD PLATE); “inactive; negative” (Test System: AMES SALMONELLA TYPHIMURIUM, Strain/Indicator: TA1538, Metabolic Activation: RAT, LIVER, S-9, SODIUM PHENOBARBITAL, Method: STANDARD PLATE); “inactive; negative” (Test System: Ames Salmonella typhimurium, Strain/Indicator: YG7108pin3ERb5, Metabolic Activation: None, Method: Standard plate). Besides, the mutagenic call was “active; positive” (Test System: CHINESE HAMSTER OVARY, Strain/Indicator: CHO-K1-BH4 (HGPRT)/6-THIOGUANINE, Metabolic Activation: NONE, Method: SUSPENSION/PLATE); “active; positive” (Test System: CHINESE HAMSTER OVARY, Strain/Indicator: CHO-K1-BH4 (HGPRT), Metabolic Activation: NONE, Method: MONOLAYER); “active; positive” (Test System: CHINESE HAMSTER OVARY, Strain/Indicator: CHO-K1-BH4 (HGPRT), Metabolic Activation: NONE, Method: SUSPENSION/PLATE); “active; positive. reevaluation of results: positive” (Test System: MOUSE LYMPHOMA, Strain/Indicator: L5178Y (TK+/TK-), Metabolic Activation: RAT, LIVER, S-9, AROCLOR 1254, Method: SUSPENSION/PLATE); “active; positive” (Test System: MOUSE LYMPHOMA, Strain/Indicator: L5178Y (TK+/TK-), Metabolic Activation: RAT, LIVER, S-9, AROCLOR, Method: SUSPENSION/PLATE).
On to `COc1ccc(-c2nc(-c3ccccc3)c(-c3ccccc3)[nH]2)cc1`, for which the mutagenic call runs as follows: under setting [1], “active; positive”; (Test System: AMES SALMONELLA TYPHIMURIUM, Strain/Indicator: TA98, Metabolic Activation: RAT LIVER S-9, 3-METHYLCHOLANTHRENE, SODIUM PHENOBARBITAL, Method: STANDARD PLATE) “inactive; negative”; under setting [2], “active; positive”; (Test System: AMES SALMONELLA TYPHIMURIUM, Strain/Indicator: TA100, Metabolic Activation: RAT LIVER S-9, 3-METHYLCHOLANTHRENE, SODIUM PHENOBARBITAL, Method: STANDARD PLATE) “inactive; negative”.
